Experimental data: the SangsterLogP compilation

Row | SMILES | logP
1 | O=C1c2ccccc2C(=O)c2c(O)c(O)cc(O)c21 | 1.84
2 | CNc1ccc(NCCO)c2c1C(=O)c1ccccc1C2=O | 1.94
3 | O=C1c2ccccc2C(=O)c2c1ccc(O)c2O | 2.34
4 | CNc1cccc2c1C(=O)c1ccccc1C2=O | 2.87
5 | Cc1ccc2c(c1N)C(=O)c1ccccc1C2=O | 2.8
6 | Cc1cc(Cl)cc2c1C(=O)/C(=C1\Sc3cc(Cl)cc(C)c3C1=O)S2 | 6.02
7 | Nc1ccc(O)c2c1C(=O)c1ccccc1C2=O | 1.8
8 | O=C1c2ccccc2C(=O)C1c1nc2ccccc2cc1O | 2.49
9 | c1ccc2oc(-c3ccc(-c4nc5ccccc5o4)s3)nc2c1 | 5.97
10 | O=c1[nH]c2ccccc2c(O)c1/N=N/c1ccccc1 | 4.2
11 | Cc1cc(N(CCO)CCO)ccc1/N=N/c1c(Cl)cc([N+](=O)[O-])cc1[N+](=O)[O-] | 3.15
12 | Nc1ccc(N=Nc2ccccc2)cc1 | 2.62
13 | O=C1c2ccccc2C(=O)c2c(NCCO)ccc(NCCO)c21 | 1.17
14 | CCOc1cc(/N=N/c2c(Br)cc([N+](=O)[O-])cc2[N+](=O)[O-])c(NC(C)=O)cc1N(CCOC(C)=O)CCOC(C)=O | 3.56
15 | COc1cc(N)c2c(c1N)C(=O)c1ccccc1C2=O | 1.29
16 | O=C1c2ccccc2C(=O)c2c(NCCO)cccc21 | 2.11

Row | SMILES | logP
17 | CC(=O)Nc1ccc(/N=N/c2cc(C)ccc2O)cc1 | 2.85
18 | CNc1ccc(NC)c2c1C(=O)c1ccccc1C2=O | 2.7
19 | O=[N+]([O-])c1ccc(Nc2ccc(O)cc2)c([N+](=O)[O-])c1 | 3.88
20 | Nc1c(Oc2ccccc2)cc(O)c2c1C(=O)c1ccccc1C2=O | 4.68
21 | Oc1ccc(/N=N/c2ccccc2)cc1 | 3.18
22 | O=C1c2ccc(O)c(O)c2C(=O)c2c(O)ccc(O)c21 | 2.01
23 | Clc1ccc(/N=N/c2ccccc2)cc1 | 4.56
24 | O=[N+]([O-])c1ccc(Nc2ccccc2)c([N+](=O)[O-])c1 | 4.55
25 | O=C1c2ccccc2C(=O)c2c(O)ccc(O)c21 | 2.34
26 | CN(C)c1ccc(/N=N/c2ccccc2)cc1 | 4.05
27 | Cc1cc(N(CCO)CCO)ccc1/N=N/c1c(Cl)cc([N+](=O)[O-])cc1Cl | 4.12
28 | CNc1ccc(O)c2c1C(=O)c1c(O)ccc(NC)c1C2=O | 1.61
29 | Nc1ccc(Nc2ccc([N+](=O)[O-])cc2[N+](=O)[O-])cc1 | 3.32
30 | O=C1C(c2[nH]c3ccccc3c2O)=Nc2ccccc21 | 2.63
31 | O=C1C(c2[nH]c3c(Br)cc(Br)cc3c2O)=Nc2c(Br)cc(Br)cc21 | 6.66

Further lines, results first:

Row | logP | SMILES
32 | 3.59 | O=[N+]([O-])c1ccc(/N=N/c2ccccc2)cc1
33 | 2.05 | O=[N+]([O-])c1ccc(/N=N/c2ccc(N(CCO)CCO)cc2)cc1
34 | 3.41 | Cc1cc(N(CCO)CCO)ccc1/N=N/c1ccc([N+](=O)[O-])cc1Cl
35 | 4.34 | CN(CCO)c1ccc(/N=N/c2c(Cl)cc([N+](=O)[O-])cc2Cl)cc1
36 | 1.79 | O=[N+]([O-])c1ccc(/N=N/c2ccc(N(CCO)CCO)cc2)c([N+](=O)[O-])c1
37 | 2.37 | Nc1ccc(/N=N/c2ccc([N+](=O)[O-])cc2)cc1
38 | 2.97 | Cc1cc(N(CCO)CCC#N)ccc1/N=N/c1ccc([N+](=O)[O-])cc1
39 | 2.93 | O=[N+]([O-])c1ccc(/N=N/c2ccc(N(CCO)CCO)cc2Cl)cc1
40 | 4.08 | CCN(CCO)c1ccc(/N=N/c2ccc([N+](=O)[O-])cc2Cl)cc1
41 | 2.31 | OCCN(CCO)c1ccc(/N=N/c2ccccc2)cc1
42 | 2.44 | Cc1cc(N(CCO)CCO)ccc1/N=N/c1ccc([N+](=O)[O-])cc1[N+](=O)[O-]
43 | 5.07 | O=[N+]([O-])c1ccc(/N=N/c2ccc(Nc3ccccc3)cc2)cc1
44 | 2.7 | Cc1cc(N(CCO)CCO)ccc1/N=N/c1ccc([N+](=O)[O-])cc1
45 | 3.79 | CN(C)c1ccc(/N=N/c2ccc([N+](=O)[O-])cc2)cc1
46 | 3.37 | CCN(CCO)c1ccc(/N=N/c2ccc([N+](=O)[O-])cc2)cc1
47 | 3.11 | CCN(CCO)c1ccc(/N=N/c2ccc([N+](=O)[O-])cc2[N+](=O)[O-])cc1
48 | 2.7 | Cc1cc(N(CCO)CCO)ccc1/N=N/c1ccccc1
49 | 2.27 | COc1cc([N+](=O)[O-])ccc1/N=N/c1ccc(N(CCO)CCO)cc1
50 | 4.69 | CCN(CC)c1ccc(/N=N/c2ccc([N+](=O)[O-])cc2)cc1
